Target: human CRTH2 (Homo sapiens (Human), UniProt Q9Y5Y4)
Experiment: Calcium Flux Assay Using Fluorometric Imaging Plate Reader (FLIPR)
Assay type: cell-based
Settings: CHO-K1 cells with G-alpha 16 and human CRTH2; inhibition of DK-PGD2 ligand-induced Ca2+ flux
Method: Calcium Flux Assay Using Fluorometric Imaging Plate Reader (FLIPR)
Cell Culture Conditions: CHO-K1 cells previously transfected with G-alpha 16 were subsequently transfected with the human CRTH2 receptor and the neomycin resistance gene. Following selection in 800 μg/mL G418 (geneticin), individual clones were assayed for their receptor expression based on staining with an anti human CRTH2 IgG, followed by assaying for their response to 13,14-dihydro-15-keto Prostaglandin D2 (DK-PDG2) (ligand) in the Ca^2+ Flux assay. Positive clones were then cloned by limiting dilution cloning. The transfected cells were cultured in Ham's F-12 medium supplemented with 10% fetal bovine serum, 2 mM glutamine, 100 U/mL penicillin/100 μg/mL streptomycin, 200 μg/mL hygromycin B, and 800 μg/mL G418 (geneticin). Cells were harvested with trypsin-EDTA (trypsin-ethylenediaminetetraacetic acid) and counted using ViaCount® reagent (from Guava Technologies, Inc. which contains two DNA-binding dyes that enable the reagent user to distinguish between viable and non-viable cells). The cell suspension volume was adjusted to 2.5×10^5 cells/mL with complete growth media. Aliquots of 50 μL were dispensed into BD Falcon™ 384 well black/clear microplates (from BD Biosciences, a division of Becton, Dickinson and Company) and the microplates were placed in a 37° C. CO2 incubator overnight. The following day, the microplates were used in the assay.
Loading Buffer containing dye (from the FLIPR® Calcium 3 Assay Kit from Molecular Devices, a division of MDS Analytical Technologies and MDS Inc.) was prepared by dissolving the contents of one bottle into 200 mL Hank's Balanced Salt Solution containing 20 mM HEPES (4-(2-hydroxyethyl)-1-piperazineethanesulfonic acid) and 2.5 mM probenecid. Growth media was removed from the cell plates and 25 μL of Hank's Balanced Salt Solution (HBSS) containing 20 mM HEPES, 0.05% BSA and 2.5 mM probenecid was added to each well followed by 25 μL of diluted dye using a Multidrop dispenser. The plates were then incubated for 1 hour at 37° C.
During the incubation, test compound plates were prepared by adding 90 μL of HBSS/20 mM HEPES/0.005% BSA buffer to the 2 μL of serial diluted compounds. To prepare serial diluted compounds, 20 mM stocks of compounds were dissolved in 100% DMSO. The compound dilution plate was set up as follows: well #1 received 5 μL of compound plus 10 μL of DMSO. Wells 2-10 received 10 μL of DMSO. 5 μL was mixed and transferred from well #1 into well #2. 1:3 serial dilutions were continued out 10 steps. 2 μL of diluted compound was transferred into duplicate wells of a 384 well “assay plate” and then 90 μL of buffer was added.
After incubation, both the cell and “assay plate” plates were brought to the fluorometric imaging plate reader (FLIPR®) and 20 μL of the diluted compounds were transferred to the cell plates by the FLIPR®. Plates were then incubated for 1 hour at room temperature. […] During the assay, fluorescence readings were taken simultaneously from all 384 wells of the cell plate every 1.5 seconds. Five readings were taken to establish a stable baseline, then 20 μL of sample was rapidly (30 μL/sec) and simultaneously added to each well of the cell plate. The fluorescence was continuously monitored before, during and after sample addition for a total elapsed time of 100 seconds. Responses (increase in peak fluorescence) in each well following agonist addition were determined. The initial fluorescence reading from each well, prior to ligand stimulation, was used as a zero baseline value for the data from that well. The responses were expressed as % inhibition of the buffer control.

Chain of human CRTH2 (Q9Y5Y4 whole entry): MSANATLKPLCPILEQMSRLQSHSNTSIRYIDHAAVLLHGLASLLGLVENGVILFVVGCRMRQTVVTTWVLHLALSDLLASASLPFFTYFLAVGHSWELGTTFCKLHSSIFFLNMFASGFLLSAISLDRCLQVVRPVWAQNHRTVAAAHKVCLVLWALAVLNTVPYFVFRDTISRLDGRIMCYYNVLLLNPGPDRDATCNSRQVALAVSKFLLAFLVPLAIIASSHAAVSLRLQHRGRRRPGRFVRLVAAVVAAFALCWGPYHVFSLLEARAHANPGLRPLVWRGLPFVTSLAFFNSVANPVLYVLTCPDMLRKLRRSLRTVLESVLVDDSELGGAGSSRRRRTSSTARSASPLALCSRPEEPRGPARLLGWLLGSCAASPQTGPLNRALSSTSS

Row | SMILES | IC50 [nM]
1 | Cc1c(Cl)cccc1NS(=O)(=O)c1ccc(-c2c(C)c(CC(=O)O)cc3ccc(Cl)cc23)cc1 [Example 31, {6-Chloro-4-[4-(3-chloro-2-methyl-phenylsulfamoyl)-phenyl]-3-methyl-naphthalen-2-yl}-acetic acid] | 6.7
2 | Cc1c(CC(=O)O)cc2ccc(Cl)cc2c1-c1ccc(S(=O)(=O)Nc2cccc(Cl)c2)cc1 [Example 32, {6-Chloro-4-[4-(3-chloro-phenylsulfamoyl)-phenyl]-3-methyl-naphthalen-2-yl}-acetic acid] | 4.7
3 | Cc1c(CC(=O)O)cc2ccc(Cl)cc2c1-c1ccc(S(=O)(=O)N2CCCCC2)cc1 [Example 34, {6-Chloro-3-methyl-4-[4-(piperidine-1-sulfonyl)-phenyl]-naphthalen-2-yl}-acetic acid] | 0.9
4 | CCN(CC)S(=O)(=O)c1ccc(-c2c(C)c(CC(=O)O)cc3ccc(Cl)cc23)cc1 [Example 35, [6-Chloro-4-(4-diethylsulfamoyl-phenyl)-3-methyl-naphthalen-2-yl]-acetic acid] | 0.5
5 | Cc1c(CC(=O)O)cc2ccc(Cl)cc2c1-c1ccc(S(=O)(=O)NC2CCCCC2)cc1 [Example 36, [6-Chloro-4-(4-cyclohexylsulfamoyl-phenyl)-3-methyl-naphthalen-2-yl]-acetic acid] | 6.1
6 | Cc1c(CC(=O)O)cc2ccc(Cl)cc2c1-c1ccc(S(=O)(=O)NC(C)C)cc1 [Example 37, [6-Chloro-4-(4-isopropylsulfamoyl-phenyl)-3-methyl-naphthalen-2-yl]-acetic acid] | 1.5
7 | Cc1c(CC(=O)O)cc2ccc(Cl)cc2c1-c1ccc(S(=O)(=O)NCc2ccccc2)cc1 [Example 38, [4-(4-Benzylsulfamoyl-phenyl)-6-chloro-3-methyl-naphthalen-2-yl]-acetic acid] | 1.6
8 | COc1ccc(CNS(=O)(=O)c2ccc(-c3c(C)c(CC(=O)O)cc4ccc(Cl)cc34)cc2)cc1 [Example 39, {6-Chloro-4-[4-(4-methoxy-benzylsulfamoyl)-phenyl]-3-methyl-naphthalen-2-yl}-acetic acid] | 13.2
9 | COc1ccc(CN(C(C)C)S(=O)(=O)c2ccc(-c3c(C)c(CC(=O)O)cc4ccc(Cl)cc34)cc2)cc1 [Example 40, (6-Chloro-4-{4-[isopropyl-(4-methoxy-benzyl)-sulfamoyl]-phenyl}-3-methyl-naphthalen-2-yl)-acetic acid] | 3.1
10 | Cc1ccc(NS(=O)(=O)c2ccc(-c3c(C)c(CC(=O)O)cc4ccc(F)cc34)cc2)cc1 [Example 42, [6-Fluoro-3-methyl-4-(4-p-tolylsulfamoyl-phenyl)-naphthalen-2-yl]-acetic acid] | 0.9
11 | Cc1c(Cl)cccc1NS(=O)(=O)c1ccc(-c2c(C)c(CC(=O)O)cc3ccc(F)cc23)cc1 [Example 44, {4-[4-(3-Chloro-2-methyl-phenylsulfamoyl)-phenyl]-6-fluoro-3-methyl-naphthalen-2-yl}-acetic acid] | 0.9
12 | Cc1c(CC(=O)O)cc2ccc(F)cc2c1-c1ccc(S(=O)(=O)Nc2cccc(Cl)c2)cc1 [Example 45, {4-[4-(3-Chloro-phenylsulfamoyl)-phenyl]-6-fluoro-3-methyl-naphthalen-2-yl}-acetic acid] | 1.5
13 | Cc1c(CC(=O)O)cc2ccc(F)cc2c1-c1ccc(S(=O)(=O)N2CCCC2)cc1 [Example 46, {6-Fluoro-3-methyl-4-[4-(pyrrolidine-1-sulfonyl)-phenyl]-naphthalen-2-yl}-acetic acid] | 0.7
14 | Cc1c(CC(=O)O)cc2ccc(F)cc2c1-c1ccc(S(=O)(=O)N2CCCCC2)cc1 [Example 47, {6-Fluoro-3-methyl-4-[4-(piperidine-1-sulfonyl)-phenyl]-naphthalen-2-yl}-acetic acid] | 4.1
15 | CCN(CC)S(=O)(=O)c1ccc(-c2c(C)c(CC(=O)O)cc3ccc(F)cc23)cc1 [Example 48, [4-(4-Diethylsulfamoyl-phenyl)-6-fluoro-3-methyl-naphthalen-2-yl]-acetic acid] | 1.8
16 | Cc1c(CC(=O)O)cc2ccc(F)cc2c1-c1ccc(S(=O)(=O)NC2CCCCC2)cc1 [Example 49, [4-(4-Cyclohexylsulfamoyl-phenyl)-6-fluoro-3-methyl-naphthalen-2-yl]-acetic acid] | 1.5
17 | Cc1c(CC(=O)O)cc2ccc(F)cc2c1-c1ccc(S(=O)(=O)NC(C)C)cc1 [Example 50, [6-Fluoro-4-(4-isopropylsulfamoyl-phenyl)-3-methyl-naphthalen-2-yl]-acetic acid] | 1.7
18 | Cc1c(CC(=O)O)cc2ccc(F)cc2c1-c1ccc(S(=O)(=O)NCc2ccccc2)cc1 [Example 51, [4-(4-Benzylsulfamoyl-phenyl)-6-fluoro-3-methyl-naphthalen-2-yl]-acetic acid] | 0.4
19 | COc1ccc(CNS(=O)(=O)c2ccc(-c3c(C)c(CC(=O)O)cc4ccc(F)cc34)cc2)cc1 [Example 52, {6-Fluoro-4-[4-(4-methoxy-benzylsulfamoyl)-phenyl]-3-methyl-naphthalen-2-yl}-acetic acid] | 3.2
20 | COc1ccc(CN(C(C)C)S(=O)(=O)c2ccc(-c3c(C)c(CC(=O)O)cc4ccc(F)cc34)cc2)cc1 [Example 53, (6-Fluoro-4-{4-[isopropyl-(4-methoxy-benzyl)-sulfamoyl]-phenyl}-3-methyl-naphthalen-2-yl)-acetic acid] | 1.3
21 | Cc1c(CC(=O)O)cc2ccc(Cl)cc2c1-c1ccc(S(=O)(=O)NCCO)cc1 [Example 56, {6-Chloro-4-[4-(2-hydroxy-ethylsulfamoyl)-phenyl]-3-methyl-naphthalen-2-yl}-acetic acid] | 5.6
22 | Cc1c(CC(=O)O)cc2ccc(F)cc2c1-c1ccc(S(=O)(=O)NCCO)cc1 [Example 57, {6-Fluoro-4-[4-(2-hydroxy-ethylsulfamoyl)-phenyl]-3-methyl-naphthalen-2-yl}-acetic acid] | 6.1

— patent publication US9000044B2, “Substituted naphthylacetic acids” (Hoffmann-La Roche Inc., priority 2012, dated 2015)
